# Measurements reported in US20240376099A1, “COMPOUNDS AND COMPOSITIONS AS INHIBITORS OF ENDOSOMAL TOLL-LIKE RECEPTORS” (Novartis AG, priority 2016, published 2024).
# Biological target: T1, TLR7 (Homo sapiens, UniProt Q9NYK1)
# T1 construct: Fresh blood was collected from normal human donors; endogenous in cells; host or cells: human PBMCs from fresh donor blood
# T1 sequence (Q9NYK1 27-1049): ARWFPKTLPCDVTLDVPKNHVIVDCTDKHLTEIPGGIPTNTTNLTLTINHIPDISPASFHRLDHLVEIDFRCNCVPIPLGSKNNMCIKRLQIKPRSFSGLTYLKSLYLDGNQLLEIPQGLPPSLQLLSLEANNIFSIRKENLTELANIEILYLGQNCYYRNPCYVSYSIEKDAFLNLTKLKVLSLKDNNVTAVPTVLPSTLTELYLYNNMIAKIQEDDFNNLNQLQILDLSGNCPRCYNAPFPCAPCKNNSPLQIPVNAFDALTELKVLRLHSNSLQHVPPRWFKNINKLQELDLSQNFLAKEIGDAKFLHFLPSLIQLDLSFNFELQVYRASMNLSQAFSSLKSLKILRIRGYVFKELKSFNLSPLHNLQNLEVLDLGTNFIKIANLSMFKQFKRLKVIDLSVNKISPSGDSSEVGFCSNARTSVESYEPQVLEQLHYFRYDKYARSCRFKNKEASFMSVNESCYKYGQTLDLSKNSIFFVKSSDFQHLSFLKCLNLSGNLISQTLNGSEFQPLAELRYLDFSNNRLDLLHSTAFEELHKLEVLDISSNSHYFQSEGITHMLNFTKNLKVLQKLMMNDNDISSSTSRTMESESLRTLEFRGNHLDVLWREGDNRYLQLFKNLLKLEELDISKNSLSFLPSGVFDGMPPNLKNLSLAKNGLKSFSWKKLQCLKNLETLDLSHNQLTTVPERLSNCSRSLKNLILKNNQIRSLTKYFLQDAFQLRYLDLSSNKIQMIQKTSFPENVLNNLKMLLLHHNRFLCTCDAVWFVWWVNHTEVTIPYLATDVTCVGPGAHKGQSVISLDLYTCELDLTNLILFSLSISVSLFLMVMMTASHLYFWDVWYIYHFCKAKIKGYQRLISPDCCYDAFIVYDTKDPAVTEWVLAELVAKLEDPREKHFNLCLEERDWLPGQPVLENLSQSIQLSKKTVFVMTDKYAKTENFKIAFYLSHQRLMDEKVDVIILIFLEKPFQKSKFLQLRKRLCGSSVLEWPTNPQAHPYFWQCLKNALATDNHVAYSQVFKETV
# Experiment: huPBMC TLR7 Antagonist IFNα Assay
# Type: cell-based
# Conditions: human PBMCs stimulated with ssRNA40 10 μg/mL (DOTAP), 14-16 hrs; IFNα2b AlphaLISA read-out
# Procedure: Compounds were generally serially diluted (1/3) in DMSO and plated on sterile 384 well tissue culture plates and stored until ready for use. Each ten-point dilution was typically plated in triplicate in parallel rows.
# Fresh blood was collected from normal human donors underwritten informed consent in heparinized syringes on the morning of the assay. The blood was diluted in RPMI-1640 medium and the white blood cells were separated from red blood cells by centrifugation (800 g 15′ 0 acceleration, 0 brake) on a Ficoll cushion. Peripheral blood mononuclear cells (PBMCs) were separated from platelets by a series of low-speed centrifugations (1000RPM 10′) in PBS+5% HI—FBS and 1 mM EDTA. Purified PBMCs were re-suspended in assay medium (RPMI-1640 w Glutamax (Invitrogen) supplemented with 5% HI—FBS, 10 mM HEPES, 50 uM β-mercaptoethanol, and 100 mG/L penicillin/streptomycin cocktail). Viable PBMCs were counted on a hemacytometer and kept on ice until ready for plating.
# A 4× concentration (4 ug/ml or 40 ug/ml for TLR8 or TLR7 assays, respectively) of the TLR7/8 agonist ssRNA40 (IDT) was complexed with 10% DOTAP (Roche) in assay medium for 30 min prior to addition to the PBMC suspension (5 million cells/ml). After addition, the final concentration of ssRNA40 in the TLR7/8 stimulated PBMC suspension was 1 μg/ml for TLR8 assay, and 10 μg/mL for the TLR7 assay. The final DOTAP concentration was 2.5%. Diluted PBMCs (5 million cells/ml) were treated with 4×TLR9 agonist ODN2216 (Invivogen). Final concentration of ODN2216 in TLR9 stimulated PBMC suspension was 0.3 μM.
# Agonist stimulated PBMCs were plated on the compound treated 384 well plates at 150,000 cells/well. Un-stimulated PBMCs were plated as controls on each plate. Plating volume was 40 μL per well. DMSO concentration in each well was 0.25%.
# A separate plate, without compounds, with titrations of ssRNA40 and ODN2216 was included in every assay to measure agonist response of each donor's PBMC prep. Assay plates were placed in a tissue culture incubator (37° C., 5% CO2) for 14-16 hrs. After this incubation, the plates were centrifuged and stored at −20° C. until they were assayed.
# IL-6 TR-FRET Assay for TLR8 activity: • 1) Cisbio Human IL-6 kit, 20,000 tests (62TNFPEC), and GNF High-Base TC 384 well plates (cat #789163G) were used; • 2) the Anti-TIL-6 Cryptate conjugate and the Anti-IL-6 XL665 conjugate were diluted 1:20 in Reconstitution Buffer; • 3) a 1:1 mixture of 3 μl/well Anti-IL-6 Cryptate conjugate and 3 μl/well Anti-IL-6 XL665 conjugate was prepared; • 4) 6 μl/well HTRF dilution mastermix was added to 6 μl of transferred supernatant samples in proxiplates; • 5) The plates were incubated for 3 hrs at rt in the dark; and • 6) the levels of IL-6 production was measured using an Envision plate reader (665 nm (emmission)/590 nm (excitation)) with HTRF settings and ratiometric read-out: (XL665 emission/Eu Cryptate emission)×10,000. IFNα2b AlphaLISA Assay for TLR7 or TLR9 activity After thawing the assay plates, 6 μL of supernatant samples were transferred to a low-volume AlphaPlate 384SW (Perkin-Elmer). The concentration of IFNα in supernatants was measured using the IFNα2b AlphaLISA Assay (Perkin-Elmer: AL297F). 3 μL of IFNα acceptor beads/biotinylated antibody solution was added first, using laboratory automation. After an hour incubation, […] of streptavidin […] bead solution was added. The plates containing this mixture were incubated in the dark for an hour and read on an appropriate plate reader at reading parameters set by the manufacturer. (Envision, EnSpire: Perkin-Elmer).
row,IC50,Structure (SMILES)
1,2 nM,"CN[C@H](C)C(=O)NC12CCC(Cn3nc(C)c4c3CCN(c3cc(C)nc5c3cnn5C)C4)(CC1)CC2 [compound 117, (R)-N-(4-((5-(1,6-dimethyl-1H-pyrazolo[3,4-b]pyridin-4-yl)-3-methyl-4,5,6,7-tetrahydro-1H-pyrazolo[4,3-c]pyridin-1-yl)methyl)bicyclo[2.2.2]octan-1-yl)-2-(methylamino)propanamide]"
2,9 nM,"Cc1cc(N2CCc3c(c(C)nn3CC34CCC(N5CC6(COC6)C5)(CC3)CC4)C2)c2cnn(C)c2n1 [compound 116, 6-(4-((5-(1,6-dimethyl-1H-pyrazolo[3,4-b]pyridin-4-yl)-3-methyl-4,5,6,7-tetrahydro-1H-pyrazolo[4,3-c]pyridin-1-yl)methyl)bicyclo[2.2.2]octan-1-yl)-2-oxa-6-azaspiro[3.3]heptane]"
3,2 nM,CN[C@@H](C)C(=O)NC12CCC(Cn3nc(C)c4c3CCN(c3cc(C)nc5c3cnn5C)C4)(CC1)CC2 [compound 118]
4,4 nM,"Cc1cc(N2CCc3c(c(C)nn3CC34CCC(NC(=O)C5CNCCO5)(CC3)CC4)C2)c2cnn(C)c2n1 (stereo not shown) [compound 125, N-(4-((5-(1,6-dimethyl-1H-pyrazolo[3,4-b]pyridin-4-yl)-3-methyl-4,5,6,7-tetrahydro-1H-pyrazolo[4,3-c]pyridin-1-yl)methyl)bicyclo[2.2.2]octan-1-yl)morpholine-2-carboxamide]"
5,259 nM,"CCNC12CCC(Cn3nc(C)c4c3CCN(c3ccnc(-c5ccccc5)c3)C4)(CC1)CC2 [compound 127, N-ethyl-4-((3-methyl-5-(2-phenylpyridin-4-yl)-4,5,6,7-tetrahydro-1H-pyrazolo[4,3-c]pyridin-1-yl)methyl)bicyclo[2.2.2]octan-1-amine]"

# More lines, now with the values behind:
row,Structure (SMILES),IC50
1,"Cc1cc(N2CCc3c(c(C)nn3CC34CCC(NC(=O)CCN)(CC3)CC4)C2)c2cnn(C)c2n1 [compound 115, 3-amino-N-(4-((5-(1,6-dimethyl-1H-pyrazolo[3,4-b]pyridin-4-yl)-3-methyl-4,5,6,7-tetrahydro-1H-pyrazolo[4,3-c]pyridin-1-yl)methyl)bicyclo[2.2.2]octan-1-yl)propanamide]",10 nM
2,"[2H]C([2H])([2H])n1ncc2c(N3CCc4c(c(C)nn4CC45CCC(N)(CC4)CC5)C3)cc(C)nc21 [Compound No. 140, 4-((3-methyl-5-(6-methyl-1-(methyl-d3)-1H-pyrazolo[3,4-b]pyridin-4-yl)-4,5,6,7-tetrahydro-1H-pyrazolo[4,3-c]pyridin-1-yl)methyl)bicyclo[2.2.2]octan-1-amine]",27 nM
3,"Cc1nc(N2CCc3c(c(C)nn3CC34CCC(NC5CCC5)(CC3)CC4)C2)c2c(n1)c(C)nn2C [compound 27, N-cyclobutyl-4-((3-methyl-5-(1,3,5-trimethyl-1H-pyrazolo[4,3-d]pyrimidin-7-yl)-4,5,6,7-tetrahydro-1H-pyrazolo[4,3-c]pyridin-1-yl)methyl)bicyclo[2.2.2]octan-1-amine]",15 nM
4,"Cc1cc(N2CCc3c(c(C)nn3CC34CCC(N)(CC3)CC4)C2)c2ccncc2n1 [Compound No. 3, 4-((3-methyl-5-(2-methyl-1,7-naphthyridin-4-yl)-4,5,6,7-tetrahydro-1H-pyrazolo[4,3-c]pyridin-1-yl)methyl)bicyclo[2.2.2]octan-1-amine]",54 nM
5,"Cc1cc(N2CCc3c(c(C)nn3CC34CCC(NC(=O)CO)(CC3)CC4)C2)c2cnn(C)c2n1 [Compound No. 135, N-(4-((5-(1,6-dimethyl-1H-pyrazolo[3,4-b]pyridin-4-yl)-3-methyl-4,5,6,7-tetrahydro-1H-pyrazolo[4,3-c]pyridin-1-yl)methyl)bicyclo[2.2.2]octan-1-yl)-2-hydroxyacetamide]",10 nM
6,"Cc1nc(N2CCc3c(c(C)nn3CC34CCC(N5CCOCC5)(CC3)CC4)C2)c2cn[nH]c2n1 [compound 21, 4-(4-((3-methyl-5-(6-methyl-1H-pyrazolo[3,4-d]pyrimidin-4-yl)-4,5,6,7-tetrahydro-1H-pyrazolo[4,3-c]pyridin-1-yl)methyl)bicyclo[2.2.2]octan-1-yl)morpholine]",24 nM
7,"Cc1cc(N2CCc3c(c(C)nn3CC34CCC(N5C[C@@H](C)O[C@@H](C)C5)(CC3)CC4)C2)c2cnn(C)c2n1 [compound 110, (2S,6R)-4-(4-((5-(1,6-dimethyl-1H-pyrazolo[3,4-b]pyridin-4-yl)-3-methyl-4,5,6,7-tetrahydro-1H-pyrazolo[4,3-c]pyridin-1-yl)methyl)bicyclo[2.2.2]octan-1-yl)-2,6-dimethylmorpholine]",7 nM
8,"Cc1cc(N2CCc3c(c(C)nn3CC34CCC(NCC5CCC5)(CC3)CO4)C2)c2cnn(C)c2n1 [compound 112, N-(cyclobutylmethyl)-1-((5-(1,6-dimethyl-1H-pyrazolo[3,4-b]pyridin-4-yl)-3-methyl-4,5,6,7-tetrahydro-1H-pyrazolo[4,3-c]pyridin-1-yl)methyl)-2-oxabicyclo[2.2.2]octan-4-amine]",24 nM
9,"Cc1cc(N2CCc3c(c(C)nn3CC34CCC(NC(=O)[C@H]5COCCN5)(CC3)CC4)C2)c2cnn(C)c2n1 [Compound No. 9, (R)—N-(4-((5-(1,6-dimethyl-1H-pyrazolo[3,4-b]pyridin-4-yl)-3-methyl-4,5,6,7-tetrahydro-1H-pyrazolo[4,3-c]pyridin-1-yl)methyl)bicyclo[2.2.2]octan-1-yl)morpholine-3-carboxamide]",15 nM
10,"Cc1nc(N2CCc3c(c(C)nn3CC34CCC(N5CCCC5)(CC3)CC4)C2)c2cnn(C)c2n1 [compound 16, 1,6-dimethyl-4-(3-methyl-1-((4-(pyrrolidin-1-yl)bicyclo[2.2.2]octan-1-yl)methyl)-6,7-dihydro-1H-pyrazolo[4,3-c]pyridin-5(4H)-yl)-1H-pyrazolo[3,4-d]pyrimidine]",25 nM
11,"Cc1cc(N2CCc3c(c(C)nn3CC34CCC(N)(CC3)C4)C2)c2cnn(C)c2n1 [compound 44, 4-((5-(1,6-dimethyl-1H-pyrazolo[3,4-b]pyridin-4-yl)-3-methyl-4,5,6,7-tetrahydro-1H-pyrazolo[4,3-c]pyridin-1-yl)methyl)bicyclo[2.2.1]heptan-1-amine]",38 nM
